Here are results for one compound from US20240424148A1, “IN-VIVO PROXIMITY-BASED LABELING SYSTEMS AND APPLICATIONS THEREOF” (THE TRUSTEES OF PRINCETON UNIVERSITY, priority 2021, published 2024).

Molecules are shown by their SMILES.

This data set can be described thus: Redox potentials (electrochemistry). It is filed as physicochemical. The source says:
This reduced species is poised to undergo single electron transfer (SET) to the aryl azide, 1 (Ep/2=−0.61 V vs Ag/AgCl), thereby regenerating the catalyst (3) (FIG. 15).
Furthermore, electrochemical reduction of the Sn-chlorin e6 catalyst generated a species with significant spectral overlap with the transient-absorption signal of the photoexcited catalyst in the presence of NADH, supporting the generation of the reduced ground state catalyst.

On to `[N-]=[N+]=Nc1ccc(C(=O)O)cc1` [compound 1, 4-azidobenzoic acid], for which the Ep/2 is −0.61 V vs Ag/AgCl.
